We go through 19 compounds from US12319676B2, “Substituted amide compounds useful as farnesoid X receptor modulators” (BRISTOL-MYERS SQUIBB COMPANY, priority 2019, dated 2025).

This assay concerns the target T1, human FXR (Homo sapiens, UniProt Q96RI1).
T1 construct: expressed in transfected cells; host or cells: HEK293 cells stably carrying a 5xGal4 response element-luciferase reporter, transiently transfected with pcDNA3.1-Gal4-FXR
T1 sequence (Q96RI1 262-486 limits assumed): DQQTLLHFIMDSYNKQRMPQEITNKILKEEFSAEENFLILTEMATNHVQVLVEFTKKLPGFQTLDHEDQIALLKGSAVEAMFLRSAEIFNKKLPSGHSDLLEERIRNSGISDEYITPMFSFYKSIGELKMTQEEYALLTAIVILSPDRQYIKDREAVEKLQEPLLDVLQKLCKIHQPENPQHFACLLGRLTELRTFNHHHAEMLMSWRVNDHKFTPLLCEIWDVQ
Put plainly: transient human FXR/Gal4-luciferase reporter assay. The assay is classed as cell-based. The settings on record: Gal4-hFXR fusion construct, luciferase reporter in HEK293 cells; overnight incubation; response as percentage of 8 μM GW-4064 control. The procedure: The exemplified compounds of the present invention were tested in the transient human FXR/Gal4-luciferase reporter assay, and assay results were reported in Table 1 and Examples 1 to 3 together with other analytical data. A Gal4-hFXR fusion construct reporter system was used as the primary assay to characterize compound activity. A construct including 5 copies of the Gal4 promoter response element upstream of a firefly luciferase reporter cDNA was stably expressed in HEK293 cells. This reporter cell line was maintained in Dulbecco's Modified Eagle's medium (DMEM; Gibco) supplemented with 1% penicillin-streptomycin (P/S) solution, 500 μg/mL Zeocin and 10% charcoal/dextran-treated fetal bovine serum (cs-FBS) at 37° C. in a humidified 5% CO2 atmosphere. Another plasmid was constructed in which the human cytomegalovirus promoter in the pcDNA3.1 vector directs the expression of the cDNA encoding a fusion protein comprised of the DNA binding domain from the Gal4 transcription factor fused to the ligand binding domain from human FXR. The day prior to transfection, the reporter cells in culture are detached from the plate with trypsin and plated into a T75 flask at a sufficient density to achieve approximately 90% confluence the next morning. The transfection reagents are prepared by separately diluting 25 μg of the pcDNA3.1-Gal4-FXR plasmid into 1.87 mL of Opti-MEM (Thermo-Fisher), and 40 μL of Lipofectamine 2000 (Thermo-Fisher) into 1.87 mL of Opti-MEM, and then adding the diluted DNA solution into the diluted Lipofectamine 2000 solution and incubating at room temperature for 15-20 minutes. The mixture is further diluted with 10 mL of a solution comprised of DMEM, 10% cs-FBS, and 1% P/S immediately prior to transferring to the cells. The maintenance culture media is aspirated from the cells and the final transfection mixture is added before the cells are incubated overnight at 37° C. in a humidified 5% CO2 atmosphere. This protocol can be scaled up, and the transiently transfected cells can be cryopreserved in an assay-ready format. For compound testing, 100 nL of the compounds (serial dilutions in DMSO) are dispensed with an Echo acoustic dispenser (Labcyte) into the wells of a Corning/Costar clear bottom 384-well white plate. The transfected cells are harvested, counted, and diluted such that 10-25,000 cells in 25 μL are plated into each well of the 384-well compound assay plate. The compound-treated cells are incubated overnight at 37° C. in a humidified 5% CO2 atmosphere. The next morning 25 μL of Steady-Glo (Promega) are added to each well of the plate, the mixture is incubated for 15 min. with shaking, and luminescence is measured on an Envision (Perkin Elmer) plate reader. Background counts from cells treated with DMSO alone are subtracted from all raw counts, and the corrected values are converted to a percentage of the control response attained with 8 μM GW-4064.
Background: A reporter such as luciferase makes a cellular process visible.
Turning to `CC(F)(F)c1nc(C23CCC(CN(C(=O)C4CC4(F)F)c4cccc(Br)c4)(CC2)CC3)no1` (racemic) [Example 31, N-(3-bromophenyl)-N-((4-(5-(1,1-difluoroethyl)-1,2,4-oxadiazol-3-yl)bicyclo[2.2.2]octan-1-yl)methyl)-2,2-difluorocyclopropane-1-carboxamide], the EC50 is 261 nM.

In turn, `CC(F)(F)c1nc(C23CCC(CN(C(=O)C45CC(F)(C4)C5)c4cccc(Cl)c4)(CC2)CC3)no1` [Example 1, N-(3-chlorophenyl)-N-((4-(5-(1,1-difluoroethyl)-1,2,4-oxadiazol-3-yl)bicyclo[2.2.2]octan-1-yl)methyl)-3-fluorobicyclo[1.1.1]pentane-1-carboxamide] displayed an EC50 of 11 nM.

Compound `CC(F)(F)c1nc(C23CCC(CN(c4cccc(Cl)c4)C(=O)[C@H]4C[C@](O)(C(F)(F)F)C4)(CC2)CC3)no1` [Example 2, N-(3-chlorophenyl)-N-((4-(5-(1,1-difluoroethyl)-1,2,4-oxadiazol-3-yl)bicyclo[2.2.2]octan-1-yl)methyl)-3-hydroxy-3-(trifluoromethyl)cyclobutane-1-carboxamide] came in with an EC50 of 64 nM.

On to `CC(F)(F)c1nc(C23CCC(CN(C(=O)C4CCC(F)(F)CC4)c4cccc(Cl)c4)(CC2)CC3)no1` [Example 3, N-(3-chlorophenyl)-N-((4-(5-(1,1-difluoroethyl)-1,2,4-oxadiazol-3-yl)bicyclo[2.2.2]octan-1-yl)methyl)-4,4-difluorocyclohexane-1-carboxamide], for which the EC50 came out at 133 nM.

Compound `CC(F)(F)c1nc(C23CCC(CN(C(=O)C45CC(F)(C4)C5)c4cccc(C#N)c4)(CC2)CC3)no1` [Example 4, N-(3-cyanophenyl)-N-((4-(5-(1,1-difluoroethyl)-1,2,4-oxadiazol-3-yl)bicyclo[2.2.2]octan-1-yl)methyl)-3-fluorobicyclo[1.1.1]pentane-1-carboxamide] displayed an EC50 of 12 nM.

In the case of `CC(F)(F)c1nc(C23CCC(CN(C(=O)C4CC(O)(C(F)(F)F)C4)c4cccc(C#N)c4)(CC2)CC3)no1` (stereo not shown) [Example 5, N-(3-cyanophenyl)-N-((4-(5-(1,1-difluoroethyl)-1,2,4-oxadiazol-3-yl)bicyclo[2.2.2]octan-1-yl)methyl)-3-hydroxy-3-(trifluoromethyl)cyclobutane-1-carboxamide], the EC50 is 164 nM.

Consider `CC(F)(F)c1nc(C23CCC(CN(C(=O)C4CCC(F)(F)CC4)c4cccc(C#N)c4)(CC2)CC3)no1` [Example 6, N-(3-cyanophenyl)-N-((4-(5-(1,1-difluoroethyl)-1,2,4-oxadiazol-3-yl)bicyclo[2.2.2]octan-1-yl)methyl)-4,4-difluorocyclohexane-1-carboxamide], for which the EC50 was 106 nM.

`CC(F)(F)c1nc(C23CCC(CN(C(=O)C45CC(F)(C4)C5)c4cccc(F)c4)(CC2)CC3)no1` [Example 7, N-((4-(5-(1,1-difluoroethyl)-1,2,4-oxadiazol-3-yl)bicyclo[2.2.2]octan-1-yl)methyl)-3-fluoro-N-(3-fluorophenyl)bicyclo[1.1.1]pentane-1-carboxamide] registered an EC50 of 30 nM.

`CC(F)(F)c1nc(C23CCC(CN(c4cccc(F)c4)C(=O)[C@H]4C[C@](O)(C(F)(F)F)C4)(CC2)CC3)no1` [Example 8, N-((4-(5-(1,1-difluoroethyl)-1,2,4-oxadiazol-3-yl)bicyclo[2.2.2]octan-1-yl)methyl)-N-(3-fluorophenyl)-3-hydroxy-3-(trifluoromethyl)cyclobutane-1-carboxamide] yielded an EC50 of 462 nM.

As for `CC(F)(F)c1nc(C23CCC(CN(C(=O)C4CCC(F)(F)CC4)c4cccc(F)c4)(CC2)CC3)no1` [Example 9, N-((4-(5-(1,1-difluoroethyl)-1,2,4-oxadiazol-3-yl)bicyclo[2.2.2]octan-1-yl)methyl)-4,4-difluoro-N-(3-fluorophenyl)cyclohexane-1-carboxamide], the EC50 turned out to be 451 nM.

`CC(F)(F)c1nc(C23CCC(CN(C(=O)C45CC(F)(C4)C5)c4ccc(F)c(F)c4)(CC2)CC3)no1` [Example 10, N-((4-(5-(1,1-difluoroethyl)-1,2,4-oxadiazol-3-yl)bicyclo[2.2.2]octan-1-yl)methyl)-N-(3,4-difluorophenyl)-3-fluorobicyclo[1.1.1]pentane-1-carboxamide] came in with an EC50 of 124 nM.

The compound `CC(F)(F)c1nc(C23CCC(CN(C(=O)C4CCC(F)(F)CC4)c4ccc(F)c(F)c4)(CC2)CC3)no1` [Example 11, N-((4-(5-(1,1-difluoroethyl)-1,2,4-oxadiazol-3-yl)bicyclo[2.2.2]octan-1-yl)methyl)-N-(3,4-difluorophenyl)-4,4-difluorocyclohexane-1-carboxamide] displayed an EC50 of 881 nM.

For the compound `CC(F)(F)c1nc(C23CCC(CN(C(=O)C45CC(F)(C4)C5)c4cccc(OC(F)F)c4)(CC2)CC3)no1` [Example 12, N-((4-(5-(1,1-difluoroethyl)-1,2,4-oxadiazol-3-yl)bicyclo[2.2.2]octan-1-yl)methyl)-N-(3-(difluoromethoxy)phenyl)-3-fluorobicyclo[1.1.1]pentane-1-carboxamide], a half-maximal effect (EC50) was put at 73 nM.

`CC(F)(F)c1nc(C23CCC(CN(c4cccc(OC(F)F)c4)C(=O)[C@H]4C[C@](O)(C(F)(F)F)C4)(CC2)CC3)no1` [Example 13, N-((4-(5-(1,1-difluoroethyl)-1,2,4-oxadiazol-3-yl)bicyclo[2.2.2]octan-1-yl)methyl)-N-(3-(difluoromethoxy)phenyl)-3-hydroxy-3-(trifluoromethyl)cyclobutane-1-carboxamide] gave an EC50 of 302 nM.

As to `CC(F)(F)c1nc(C23CCC(CN(C(=O)C45CC(F)(C4)C5)c4cccc(C(F)(F)F)c4)(CC2)CC3)no1` [Example 14, N-((4-(5-(1,1-difluoroethyl)-1,2,4-oxadiazol-3-yl)bicyclo[2.2.2]octan-1-yl)methyl)-3-fluoro-N-(3-(trifluoromethyl)phenyl)bicyclo[1.1.1]-pentane-1-carboxamide], the 50% effective concentration (EC50) was found to be 29 nM.

Compound `CC(F)(F)c1nc(C23CCC(CN(c4cccc(C(F)(F)F)c4)C(=O)[C@H]4C[C@](O)(C(F)(F)F)C4)(CC2)CC3)no1` [Example 15, N-((4-(5-(1,1-difluoroethyl)-1,2,4-oxadiazol-3-yl)bicyclo[2.2.2]octan-1-yl)methyl)-3-hydroxy-3-(trifluoromethyl)-N-(3-(trifluoromethyl)phenyl)cyclobutane-1-carboxamide] displayed an EC50 of 176 nM.

`CC(F)(F)c1nc(C23CCC(CN(C(=O)C4CCC(F)(F)CC4)c4cccc(C(F)(F)F)c4)(CC2)CC3)no1` [Example 16, N-((4-(5-(1,1-difluoroethyl)-1,2,4-oxadiazol-3-yl)bicyclo[2.2.2]octan-1-yl)methyl)-4,4-difluoro-N-(3-(trifluoromethyl)phenyl)cyclohexane-1-carboxamide] returned a half-maximal effective concentration (EC50) of 315 nM.

Turning to `COc1cc(N(CC23CCC(c4noc(C(C)(F)F)n4)(CC2)CC3)C(=O)C23CC(F)(C2)C3)ccn1` [Example 17, N-((4-(5-(1,1-difluoroethyl)-1,2,4-oxadiazol-3-yl)bicyclo[2.2.2]octan-1-yl)methyl)-3-fluoro-N-(2-methoxypyridin-4-yl)bicyclo[1.1.1]pentane-1-carboxamide], a half-maximal effect (EC50) was put at 149 nM.

On to `CC(F)(F)c1nc(C23CCC(CN(C(=O)C45CC(F)(C4)C5)c4cccc(S(=O)(=O)NC5CC5)c4)(CC2)CC3)no1` [Example 18, N-(3-(N-cyclopropylsulfamoyl)phenyl)-N-((4-(5-(1,1-difluoroethyl)-1,2,4-oxadiazol-3-yl)bicyclo[2.2.2]octan-1-yl)methyl)-3-fluorobicyclo[1.1.1]pentane-1-carboxamide], for which a half-maximal response (EC50) required 1560 nM.

For orientation: EC50 means the concentration at which the effect is half-maximal. Read a high EC50 as weaker potency.
